This experiment has as its system CD2F1 mice, L1210 leukemia ip, survival T/C. The experiment in a line: NCI In Vivo Anticancer Drug Screen. Data for tumor model L1210 Leukemia (intraperitoneal) in CD2F1 (CDF1) mice. The conditions noted are these: higher = longer survival. In short, it runs like this:
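Antitumor effect is scored in animals hosting a serially transplanted tumor. Values compare compound-dosed animals against vehicle-only controls as a simple quotient.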

Where [1] appears, read: endpoint: mean survival time, dose: 50.0 mg/kg/injection, schedule: Q01DX009 (ip), vehicle: saline.
Setting [2] is: endpoint: mean survival time, dose: 100.0 mg/kg/injection, schedule: Q01DX009 (ip), vehicle: saline.
Where [3] appears, read: endpoint: mean survival time, dose: 100.0 mg/kg/injection, schedule: Q04DX003 (ip), vehicle: saline with Tween-80.
Setting [4] is: endpoint: mean survival time, dose: 25.0 mg/kg/injection, schedule: Q04DX003 (ip), vehicle: saline.
Setting [5] is: endpoint: mean survival time, dose: 100.0 mg/kg/injection, schedule: Q04DX002 (ip), vehicle: saline with Tween-80.
The mark [6] stands for this setting: endpoint: mean survival time, dose: 200.0 mg/kg/injection, schedule: Q04DX002 (ip), vehicle: saline with Tween-80.
Where [7] appears, read: endpoint: mean survival time, dose: 400.0 mg/kg/injection, schedule: Q04DX002 (ip), vehicle: saline with Tween-80.

Values joined by “and” are separate entries in the source; they are usually repeats but may differ in a detail not shown here. Identical values can stand only once. Inconclusive results and toxic doses are left out.

For `CC(=O)OC1OC(C)C(OC(C)=O)C(OC(C)=O)C1NC(=O)N(CCCl)N=O` (stereo unspecified), the T/C is, setting by setting: (endpoint: mean survival time, dose: 17.0 mg/kg/injection, schedule: Q01DX001 (ip), vehicle: saline with Tween-80) 508 % of control; (endpoint: mean survival time, dose: 26.0 mg/kg/injection, schedule: Q01DX001 (ip), vehicle: saline with Tween-80) 535 % of control; (endpoint: mean survival time, dose: 40.0 mg/kg/injection, schedule: Q01DX001 (ip), vehicle: saline with Tween-80) 389 % of control.

With `CCCCN1C(=O)c2c(Cl)c(Cl)c(Cl)c(Cl)c2C1=O`, the T/C (endpoint: mean survival time, dose: 25.0 mg/kg/injection, schedule: Q04DX002 (ip), vehicle: other) is 90 % of control; the T/C (endpoint: mean survival time, dose: 50.0 mg/kg/injection, schedule: Q04DX002 (ip), vehicle: other) was 90 % of control; the T/C (endpoint: mean survival time, dose: 100.0 mg/kg/injection, schedule: Q04DX002 (ip), vehicle: other) is 86 % of control.

Take `COc1cc2c(c(OC)c1OC)-c1ccc(OC)c(=O)cc1[C@@H](NC(=O)CF)CC2`: the T/C (endpoint: mean survival time, dose: 0.37 mg/kg/injection, schedule: Q01DX009 (ip), vehicle: saline) is 109 % of control.

`[Cl][Pt][Cl].[NH-]C(CCC(N)=O)C(=O)O` (stereo unspecified): the T/C reads like this: (endpoint: median survival time, dose: 12.5 mg/kg/injection, schedule: Q04DX003 (ip), vehicle: water) 100 % of control; (endpoint: median survival time, dose: 25.0 mg/kg/injection, schedule: Q04DX003 (ip), vehicle: water) 101 % of control; (endpoint: median survival time, dose: 50.0 mg/kg/injection, schedule: Q04DX003 (ip), vehicle: water) 108 % of control; (endpoint: median survival time, dose: 100.0 mg/kg/injection, schedule: Q04DX003 (ip), vehicle: water) 107 % of control; (endpoint: median survival time, dose: 200.0 mg/kg/injection, schedule: Q04DX003 (ip), vehicle: water) 111 % of control.

Regarding `CNC(=O)OCCN(C)OC`, the T/C is, setting by setting: (endpoint: mean survival time, dose: 100.0 mg/kg/injection, schedule: Q04DX003 (ip), vehicle: saline) 95 % of control; (endpoint: mean survival time, dose: 200.0 mg/kg/injection, schedule: Q04DX003 (ip), vehicle: saline) 98 % of control; (endpoint: mean survival time, dose: 400.0 mg/kg/injection, schedule: Q04DX003 (ip), vehicle: saline) 93 % of control.

For the compound `CCC1(O)C(=O)OCc2c1cc1n(c2=O)Cc2cc3ccc(C(=O)O)cc3nc2-1` (stereo unspecified), the T/C was 108 % of control (endpoint: median survival time, dose: 10.0 mg/kg/injection, schedule: Q04DX002 (ip), vehicle: saline with Tween-80); 100 % of control (endpoint: median survival time, dose: 10.0 mg/kg/injection, schedule: Q04DX002 (ip), vehicle: water); 101 % of control (endpoint: median survival time, dose: 20.0 mg/kg/injection, schedule: Q04DX002 (ip), vehicle: saline with Tween-80); 109 % of control (endpoint: median survival time, dose: 20.0 mg/kg/injection, schedule: Q04DX002 (ip), vehicle: water); 108 % of control (endpoint: median survival time, dose: 40.0 mg/kg/injection, schedule: Q04DX002 (ip), vehicle: saline with Tween-80); 106 % of control (endpoint: median survival time, dose: 40.0 mg/kg/injection, schedule: Q04DX002 (ip), vehicle: water). Moreover, the T/C is, setting by setting: (endpoint: median survival time, dose: 80.0 mg/kg/injection, schedule: Q04DX002 (ip), vehicle: saline with Tween-80) 108 % of control; (endpoint: median survival time, dose: 80.0 mg/kg/injection, schedule: Q04DX002 (ip), vehicle: water) 106 % of control.

On to `COC1/C=C\C=C(/C)C(=O)NC2=CC(=O)C=C(C2=O)C(OC)C(C)CC(OC)C(OC)C(C)/C=C(/C)C1OC(N)=O` (stereo unspecified), for which the T/C was 108 % of control (endpoint: mean survival time, dose: 0.18 mg/kg/injection, schedule: Q01DX009 (ip), vehicle: Klucel (hydroxypropylcellulose) (HPC)); 107 % of control (endpoint: mean survival time, dose: 0.37 mg/kg/injection, schedule: Q01DX009 (ip), vehicle: Klucel (hydroxypropylcellulose) (HPC)); 120 % of control and 98 % of control (endpoint: mean survival time, dose: 0.75 mg/kg/injection, schedule: Q01DX009 (ip), vehicle: Klucel (hydroxypropylcellulose) (HPC)); 93 % of control and 103 % of control (endpoint: mean survival time, dose: 1.5 mg/kg/injection, schedule: Q01DX009 (ip), vehicle: Klucel (hydroxypropylcellulose) (HPC)); 95 % of control and 105 % of control (endpoint: mean survival time, dose: 3.0 mg/kg/injection, schedule: Q01DX009 (ip), vehicle: Klucel (hydroxypropylcellulose) (HPC)).

Take `C[Si](C)(C)OC1(C#N)C=CC(=O)C=C1`: the T/C runs as follows: (endpoint: mean survival time, dose: 1.56 mg/kg/injection, schedule: Q01DX001 (ip), vehicle: saline with Tween-80) 103 % of control; (endpoint: mean survival time, dose: 3.13 mg/kg/injection, schedule: Q01DX001 (ip), vehicle: saline with Tween-80) 100 % of control; (endpoint: mean survival time, dose: 6.25 mg/kg/injection, schedule: Q01DX001 (ip), vehicle: saline with Tween-80) 92 % of control and 95 % of control.

As for `O=C1c2ccccc2C(=O)c2c(O)ccc(O)c21`, the T/C is 106 % of control under setting [1]; 88 % of control (endpoint: mean survival time, dose: 100.0 mg/kg/injection, schedule: Q01DX001 (ip), vehicle: saline with Tween-80); 97 % of control under setting [2]; 94 % of control under setting [3]; 91 % of control (endpoint: mean survival time, dose: 200.0 mg/kg/injection, schedule: Q01DX001 (ip), vehicle: saline with Tween-80); 109 % of control (endpoint: mean survival time, dose: 200.0 mg/kg/injection, schedule: Q01DX009 (ip), vehicle: saline). Moreover, the T/C is, setting by setting: (endpoint: mean survival time, dose: 200.0 mg/kg/injection, schedule: Q04DX003 (ip), vehicle: saline with Tween-80) 102 % of control; (endpoint: mean survival time, dose: 400.0 mg/kg/injection, schedule: Q01DX001 (ip), vehicle: saline with Tween-80) 86 % of control; (endpoint: mean survival time, dose: 400.0 mg/kg/injection, schedule: Q04DX003 (ip), vehicle: saline with Tween-80) 103 % of control.

For `CC(=O)Nc1ccc2nc3ccc(NC(C)=O)cc3[n+](-c3ccccc3)c2c1`, the T/C by setting is: (endpoint: mean survival time, dose: 16.0 mg/kg/injection, schedule: Q01DX008 (iv), vehicle: saline) 98 % of control; (endpoint: mean survival time, dose: 25.0 mg/kg/injection, schedule: Q03DX003 (ip), vehicle: saline) 118 % of control; under setting [4], 123 % of control; (endpoint: mean survival time, dose: 32.0 mg/kg/injection, schedule: Q01DX008 (iv), vehicle: saline) 100 % of control; (endpoint: mean survival time, dose: 50.0 mg/kg/injection, schedule: Q01DX007 (ip), vehicle: saline) 155 % of control; under setting [1], 157 % of control. In addition, the T/C runs as follows: (endpoint: mean survival time, dose: 64.0 mg/kg/injection, schedule: Q01DX008 (iv), vehicle: saline) 115 % of control; (endpoint: mean survival time, dose: 100.0 mg/kg/injection, schedule: Q01DX007 (ip), vehicle: saline) 183 % of control; under setting [2], 155 % of control.

Take `CC(C)(C)OC(=O)NNC(=O)c1ccc([N+](=O)[O-])cc1`: the T/C by setting is: (endpoint: mean survival time, dose: 6.25 mg/kg/injection, schedule: Q01DX009 (ip), vehicle: alcohol) 172 % of control; (endpoint: mean survival time, dose: 12.5 mg/kg/injection, schedule: Q01DX009 (ip), vehicle: alcohol) 100 % of control; (endpoint: mean survival time, dose: 25.0 mg/kg/injection, schedule: Q01DX009 (ip), vehicle: alcohol) 97 % of control.

As for `CC(=O)OCC(=O)[C@@]1(O)CC[C@H]2[C@@H]3CCC4=CC(=O)C=C[C@]4(C)[C@@]3(F)[C@@H](O)C[C@@]21C`, the T/C was 104 % of control (endpoint: mean survival time, dose: 12.5 mg/kg/injection, schedule: Q04DX003 (ip), vehicle: saline); 104 % of control under setting [4]; 107 % of control (endpoint: mean survival time, dose: 50.0 mg/kg/injection, schedule: Q04DX003 (ip), vehicle: saline).

Take `CC1CN(Br)C(=O)N(Br)C1=O` (stereo unspecified): the T/C by setting is: (endpoint: mean survival time, dose: 75.0 mg/kg/injection, schedule: Q01DX001 (ip), vehicle: saline) 102 % of control; (endpoint: mean survival time, dose: 150.0 mg/kg/injection, schedule: Q01DX001 (ip), vehicle: saline) 100 % of control.

On to `O=[N+]([O-])Nc1ccc(C(c2ccc(N[N+](=O)[O-])cc2)c2ccc([N+](=O)[O-])cc2)cc1`, for which the T/C by setting is: under setting [5], 95 % of control; under setting [6], 88 % of control; under setting [7], 88 % of control.

Regarding `CC12CCC(=O)C=C1CC(CC(=O)O)CC2` (stereo unspecified), the T/C runs as follows: under setting [5], 100 % of control; under setting [6], 108 % of control; under setting [7], 104 % of control.

`NC(CCCCNCC(CNCCCCC(N)C(=O)O)C(=O)O)C(=O)O` (stereo unspecified): the T/C was 105 % of control (endpoint: mean survival time, dose: 25.0 mg/kg/injection, schedule: Q04DX002 (ip), vehicle: saline with Tween-80); 98 % of control (endpoint: mean survival time, dose: 50.0 mg/kg/injection, schedule: Q04DX002 (ip), vehicle: saline with Tween-80); 94 % of control under setting [5].

`O=C(/C=C/c1ccccc1O)/C=C/c1ccccc1O`: the T/C by setting is: (endpoint: mean survival time, dose: 25.0 mg/kg/injection, schedule: Q01DX009 (ip), vehicle: saline with Tween-80) 107 % of control; (endpoint: mean survival time, dose: 25.0 mg/kg/injection, schedule: Q04DX003 (ip), vehicle: saline with Tween-80) 111 % of control; (endpoint: mean survival time, dose: 50.0 mg/kg/injection, schedule: Q01DX009 (ip), vehicle: saline with Tween-80) 94 % of control; (endpoint: mean survival time, dose: 50.0 mg/kg/injection, schedule: Q04DX003 (ip), vehicle: saline with Tween-80) 101 % of control; under setting [3], 105 % of control.
